In patent publication US6342765B1, “Imidazole derivatives and their use as farnesyl protein transferase inhibitors” (AstraZeneca UK Limited, priority 1997, dated 2002):

Assays:
[1] = target: T1, Farnesyl protein transferase (FPT) (Homo sapiens, UniProt P49354+P49356); test: In-vitro farnesyl protein transferase assay (farnesylation of Ki-ras with radiolabelled farnesyl pyrophosphate); format: biochemical; conditions: read-out: IC50 in the above test
T1 construct: partially purified from human placenta; from tissue; host or cells: human placenta
Method: The following stock solutions were used and the assays were conducted in 96 well plates: TRIS Buffer (500 mM TRIS, 50 mM MgCl2.6H2O, pH=8.0); Farnesyl pyrophosphate (6.4 mg/ml); Aprotinin (1.9 mg/ml); Ki-ras (0.5 mg/ml, stored at −80° C.); Acid ethanol (850 ml absolute ethanol+150 ml concentrated HCl).
Farnesyl protein transferase (FPT) was partially purified from human placenta by t ammonium sulphate fractionation followed by a single Q-Sepharose™ (Pharmacia, Inc) anion exchange chromatography essentially as described by Ray and Lopez-Belmonte (Ray K P and Lopez-Belmonte J (1992) Biochemical Society Transactions 20 494-497). The substrate for FPT was Kras (CVIM C-terminal sequence). The cDNA for oncogenic val12 variant of human c-Ki-ras-2 4B was obtained from the plasmid pSW11-1 (ATCC). This was then subcloned into the polylinker of a suitable expression vector e.g. pIC147. The Kras was obtained after expression in the E. coli strain, BL21. […]
Assays were performed in 96 well plates as follows: 10 μl of test compound solution was added to each well. […] Precipitated protein was then collected onto glass fibre filter mats (B) using a Tomtec™ cell harvester and tritiated label was measured in a Wallac™1204 Betaplate scintillation counter. […]

Row | IC50 [1] [nM] | melting point [°C] | Compound
1 | ~1 |  | CSCC[C@H](NC(=O)c1ccc(COC(Cn2ccnc2)c2ccc(F)cc2)cc1-c1ccc(F)cc1)C(=O)O (stereo partly drawn) [Example 2, (2S)-2-{2-(4-fluorophenyl)-4-[2-(imidazol-1-yl)-1-(4-fluorophenyl)ethoxymethyl]benzoylamino]-4-methylsulfanylbutyric acid]
2 |  | 50 to 53 | CSCC[C@H](NC(=O)c1ccc(COC(Cn2ccnc2)c2nccs2)cc1-c1ccc(F)cc1)C(=O)OC(C)(C)C (stereo partly drawn) [Example 16, Tert-butyl (2S)-2-{2-(4-fluorophenyl)-4-[1-(thiazol-2-yl)-2-(imidazol-1-yl)ethoxymethyl]benzoylamino}-4-methylsulfanylbutyrate]
